For orientation: IC50 means the concentration needed to halve the response being measured. Low readings indicate inhibition by little substance, high ones a need for much substance.

The target of experiment [1] is T1, porcine gastric H+/K+-ATPase (Sus scrofa, UniProt P19156).
T1 construct: prepared from mucous membrane in fresh porcine stomachs by homogenization; from tissue; host or cells: mucous membrane of fresh porcine stomachs (gastric vesicles)
Description: Ion-tight porcine gastric H+/K+-ATPase inhibition. The experiment is classed as biochemical. Conditions: ion-tight gastric vesicles, 150 mM KCl, valinomycin, pH 7.4, 37° C. The procedure: The porcine gastric vesicles for Porcine gastric H^+/K^+-ATPase inhibition assays were prepared from mucous membrane in fresh porcine stomachs by homogenization with a tight-fitted polytetrafluoroethylene (Teflone®) homogenizer in 0.25 M sucrose at 4° C. The crude pellet was removed with centrifugation at 20,000 g for 30 min. Then supernatant was centrifuged at 100,000 g for 30 min. The resulting pellet was re-suspended in 0.25 M sucrose, and then subjected to density gradient centrifugation at 132,000 g for 90 min. The gastric vesicles were collected from interface on 0.25 M sucrose layer containing 7% Ficoll™ PM400(Amersham Biosciences). This procedure was performed in a cold room.
Ion-tight porcine gastric H^+/K^+-ATPase inhibition was measured according to the modified method described in Biochemical Pharmacology, 1988, 37, 2231-2236.
The isolated vesicles were kept in deep-freezer until use. For enzyme assay, vesicles were diluted with 3 mM MgSO4 containing 5 mM Tris (pH 7.4 at 37° C).
Enzyme reaction was performed incubating 150 mM KCl, 3 mM Na2ATP, 3 mM MgSO4, 15 μM valinomycin and 3.0 μg of vesicles for 30 minutes at 37° C. in a final 60 μl of reaction mixture (5 mM Tris, pH 7.4) with or without the test compound. Enzyme reaction was stopped by adding 10% SDS. Released inorganic phosphate from ATP was detected by incubating with mixture of 1 part of 35 mM ammonium molybdate tetrahydrate in 15 mM Zinc acetate hydrate and 4 parts of 10% ascorbic acid (pH 5.0), resulting in phosphomolybdate, which has optical density at 750 nm.

A further experiment concerns gastric acid secretion. Description: Inhibition of gastric acid secretion in the Heidenhain pouch dog. The following applies: histamine-stimulated (80 μg/kg/h) acid secretion, oral or intravenous bolus administration. The experiment is classed as in vivo, Beagle dogs. The procedure: Male Beagle dogs weighing 7-15 kg with Heidenhain pouch [Heidenhain R: Arch Ges Physiol. 1879; 19: 148-167] were used. The animals were allowed to recover from surgery for at least three weeks before the experiments. The animals were kept at a 12 hour light-dark rhythm, housed singly. They received standard food once daily at 11:00 a.m. and tap water ad libitum, and were fasted overnight prior to the experiment, with free access to water. Gastric juice samples were collected throughout the experiment by gravity drainage every 15 min. Acidity in the gastric juice was measured by titration to the end point of pH 7.0. Acid secretion was stimulated by a continuous intravenous infusion of histamine (80 μg/kg/h). Oral or intravenous bolus administration of the test compounds was done 90 minutes after commencement of the histamine infusion. The acid secretion was monitored after the administration. The activity was evaluated by the maximum inhibition relative to the corresponding control value.

T1 sequence (P19156 2-1034 limits assumed): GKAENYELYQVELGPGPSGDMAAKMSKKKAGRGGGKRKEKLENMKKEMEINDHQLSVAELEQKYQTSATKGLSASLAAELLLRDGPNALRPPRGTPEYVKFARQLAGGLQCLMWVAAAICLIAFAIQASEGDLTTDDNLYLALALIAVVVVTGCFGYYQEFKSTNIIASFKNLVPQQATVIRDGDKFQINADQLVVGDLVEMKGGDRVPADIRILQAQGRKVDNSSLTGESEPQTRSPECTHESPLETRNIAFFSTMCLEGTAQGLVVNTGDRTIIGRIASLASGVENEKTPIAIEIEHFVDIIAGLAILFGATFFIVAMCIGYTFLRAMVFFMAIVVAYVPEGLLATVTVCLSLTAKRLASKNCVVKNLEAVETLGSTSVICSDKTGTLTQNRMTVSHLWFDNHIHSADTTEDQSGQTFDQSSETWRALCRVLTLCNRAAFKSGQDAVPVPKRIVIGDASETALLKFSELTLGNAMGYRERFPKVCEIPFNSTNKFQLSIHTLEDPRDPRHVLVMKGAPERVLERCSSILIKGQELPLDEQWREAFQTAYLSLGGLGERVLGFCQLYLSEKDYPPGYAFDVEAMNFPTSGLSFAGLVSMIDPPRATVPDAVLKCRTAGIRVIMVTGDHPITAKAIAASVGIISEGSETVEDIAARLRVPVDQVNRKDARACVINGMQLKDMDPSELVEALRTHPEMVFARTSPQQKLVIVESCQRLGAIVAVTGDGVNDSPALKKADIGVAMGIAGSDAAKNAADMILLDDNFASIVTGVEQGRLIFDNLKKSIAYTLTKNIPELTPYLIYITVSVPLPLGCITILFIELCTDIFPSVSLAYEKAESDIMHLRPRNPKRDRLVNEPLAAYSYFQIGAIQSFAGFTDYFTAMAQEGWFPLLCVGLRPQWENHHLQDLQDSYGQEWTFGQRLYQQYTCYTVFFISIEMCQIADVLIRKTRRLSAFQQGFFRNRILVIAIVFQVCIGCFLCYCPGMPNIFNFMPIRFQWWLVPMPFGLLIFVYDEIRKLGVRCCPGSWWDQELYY
T1 sequence (P18434 whole entry partner): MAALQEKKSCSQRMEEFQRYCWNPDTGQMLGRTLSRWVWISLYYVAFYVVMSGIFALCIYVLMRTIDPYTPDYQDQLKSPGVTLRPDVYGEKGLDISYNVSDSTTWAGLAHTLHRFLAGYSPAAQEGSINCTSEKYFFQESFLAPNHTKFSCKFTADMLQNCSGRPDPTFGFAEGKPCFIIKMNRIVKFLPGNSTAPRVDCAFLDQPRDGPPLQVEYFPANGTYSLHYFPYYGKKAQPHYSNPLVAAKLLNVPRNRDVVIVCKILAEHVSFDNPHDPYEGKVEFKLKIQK

In experiment [1], `Cc1nc2c(OC3CCOc4ccccc43)cc(C(=O)N(C)CCO)cc2n1C` (stereo not drawn) [Example 11, 4-(3,4-Dihydro-2H-chromen-4-yloxy)-N-(2-hydroxyethyl)-N,1,2-trimethyl-1H-benzimidazole-6-carboxamide] returned an IC50 of 430 nM. The molecule `Cc1nc2c(OC3CCOc4ccccc43)cc(C(=O)N3CC[C@H](O)C3)cc2n1C` (stereo partly drawn) [Example 12, (3S)-1-{[4-(3,4-Dihydro-2H-chromen-4-yloxy)-1,2-dimethyl-1H-benzimidazol-6-yl]carbonyl}pyrrolidin-3-ol] displayed an IC50 in experiment [1] of 670 nM.

In experiment [1], `Cc1nc2c(OC3CCOc4cc(F)ccc43)cc(C(=O)N(C)C)cc2n1C` (single isomer, unassigned; (-)) [Example 3, (−)-4-[(7-Fluoro-3,4-dihydro-2H-chromen-4-yl)oxy]-N,N,1,2-tetramethvl-1H-benzimidazole-6-carboxamide] had a half-inhibitory concentration (IC50) of 440 nM.

`Cc1nc2c(OC3CCOc4ccccc43)cc(C(=O)N3CC[C@@H](O)C3)cc2n1C` (stereo partly drawn) [Example 13, (3R)-1-{[4-(3,4-Dihydro-2H-chromen-4-yloxy)-1,2-dimethyl-1H-benzimidazol-6-yl]carbonyl}pyrrolidin-3-ol] displayed an IC50 in experiment [1] of 120 nM. With `CNC(=O)c1cc(OC2CCOc3cc(F)cc(F)c32)c2nc(C)n(C)c2c1` (racemic) [Example 19, 4-[(5,7-Difluoro-3,4-dihydro-2H-chromen-4-yl)oxy]-N,1,2-trimethyl-1H-benzimidazole-6-carboxamide], in experiment [1], the IC50 came to 680 nM. This IC50 lies about 5.7-fold higher than the previous one. Take `Cc1nc2c(OC3CCOc4ccccc43)cc(C(=O)N3CCN(C)CC3)cc2n1C` (stereo not drawn) [Example 15, 4-(3,4-Dihydro-2H-chromen-4-yloxy)-1,2-dimethyl-6-[(4-methylpiperazin-1-yl)carbonyl]-1H-benzimidazole]: the IC50 in experiment [1] turned out to be 950 nM. The molecule `Cc1nc2c(OC3CCOc4cc(F)cc(F)c43)cc(C(=O)N3CCCC3)cc2n1C` (stereo not drawn) [Example 25, 4-[(5,7-Difluoro-3,4-dihydro-2H-chromen-4-yl)oxy]-1,2-dimethyl-6-(pyrrolidin-1-ylcarbonyl)-1H-benzimidazole] yielded an IC50 in experiment [1] of 590 nM. Compared with the last molecule, the IC50 is about 1.6-fold lower.

`Cc1nc2c(OC3CCOc4cc(F)cc(F)c43)cc(C(=O)N3CCC3)cc2n1C` (single isomer, unassigned; (-)) [Example 23, (−)-6-(Azetidin-1-ylcarbonyl)-4-[(5,7-difluoro-3,4-dihydro-2H-chromen-4-yl)oxy]-1,2-dimethyl-1H-benzimidazole]: in experiment [1], the 50% inhibitory concentration (IC50) amounted to 440 nM. `Cc1nc2c(OC3CCOc4ccccc43)cc(C(=O)N3CCC[C@@H]3CO)cc2n1C` (stereo partly drawn) [Example 14] gave a 50% inhibitory concentration (IC50) in experiment [1] of 980 nM.

The molecule `Cc1nc2c(OC3CCOc4cc(F)cc(F)c43)cc(C(=O)N(C)C)cc2n1C` (single isomer, unassigned; (+)) [Example 7, (+)-4-[(5,7-Difluoro-3,4-dihydro-2H-chromen-4-yl)oxy]-N,N,1,2-tetramethyl-1H-benzimidazole-6-carboxamide] showed a concentration for half-maximal inhibition (IC50) in experiment [1] of 220 nM. This IC50 is about 4.5-fold lower than that of the molecule before. `Cc1nc2c(OC3CCOc4cc(F)ccc43)cc(C(=O)N(C)C)cc2n1C` (racemic) [Example 2, 4-[(7-Fluoro-3,4-dihydro-2H-chromen-4-yl)oxy]-N,N,1,2-tetramethyl-1H-benzimidazole-6-carboxamide] had an IC50 in experiment [1] of 69 nM.

For `Cc1nc2c(OC3CCOc4ccccc43)cc(C(=O)N(C)C)cc2n1C` (stereo not drawn) [Example 1, 4-(3,4-Dihydro-2H-chromen-4-yloxy)-N,N,1,2-tetramethyl-1H-benzimidazole-6-carboxamide], half-maximal inhibition in experiment [1] (IC50) was put at 560 nM. Against the preceding molecule, the IC50 is about 8.1-fold higher. Same read-out and setting: for `Cc1cccc2c1C(Oc1cc(C(=O)N(C)C)cc3c1nc(C)n3C)CCO2` (stereo not drawn) [Example 8, N,N,1,2-Tetramethyl-4-[(5-methyl-3,4-dihydro-2H-chromen-4-yl)oxy]-1H-benzimidazole-6-carboxamide] the value was 180 nM; for `Cc1nc2c(OC3CCOc4cccc(F)c43)cc(C(=O)N(C)C)cc2n1C` (single isomer, unassigned; (-)) [Example 17, (−)-4-{[5-Fluoro-3,4-dihydro-2H-chromen-4-yl]oxy}-N,N,1,2-tetramethyl-1H-benzimidazole-6-carboxamide], 340 nM.

`Cc1nc2c(OC3CCOc4cccc(F)c43)cc(C(=O)N(C)C)cc2n1C` (single isomer, unassigned; (+)) [Example 18, (+)-4-{[5-Fluoro-3,4-dihydro-2H-chromen-4-yl]oxy}-N,N,1,2-tetramethyl-1H-benzimidazole-6-carboxamide] gave an IC50 in experiment [1] of 240 nM. The same measure, in the same setting: for `Cc1nc2c(OC3CCOc4cc(F)cc(F)c43)cc(C(=O)N3CCC3)cc2n1C` (racemic) [Example 22, 6-(Azetidin-1-ylcarbonyl)-4-[(5,7-difluoro-3,4-dihydro-2H-chromen-4-yl)oxy]-1,2-dimethyl-1H-benzimidazole] the value was 180 nM; for `Cc1nc2c(OC3CCOc4cc(F)cc(F)c43)cc(C(=O)N(C)C)cc2n1C` (racemic) [Example 5, 4-[(5,7-Difluoro-3,4-dihydro-2H-chromen-4-yl)oxy]-N,N,1,2-tetramethyl-1H-benzimidazole-6-carboxamide], 90 nM. On to `Cc1nc2c(OC3CCOc4cc(F)cc(F)c43)cc(C(=O)N3CC(C)(O)C3)cc2n1C` (stereo not drawn) [Example 26, 1-({4-[(5,7-Difluoro-3,4-dihydro-2H-chromen-4-yl)oxy]-1,2-dimethyl-1H-benzimidazol-6-yl}carbonyl)-3-methylazetidin-3-ol], for which, in experiment [1], half-maximal inhibition (IC50) required 480 nM. Same read-out and setting: for `CC(=O)N1CCN(C(=O)c2cc(OC3CCOc4ccccc43)c3nc(C)n(C)c3c2)CC1` (stereo not drawn) [Example 16, 6-[(4-Acetylpiperazin-1-yl)carbonyl]-4-(3,4-dihydro-2H-chromen-4-yloxy)-1,2-dimethyl-1H-benzimidazole] the value was 140 nM.

With `CNC(=O)c1cc(OC2CCOc3cc(F)cc(F)c32)c2nc(C)n(C)c2c1` (single isomer, unassigned; (+)) [Example 21, (+)-4-[(5,7-Difluoro-3,4-dihydro-2H-chromen-4-yl)oxy]-N,1,2-trimethyl-1H-benzimidazole-6-carboxamide], the half-inhibitory concentration (IC50) in experiment [1] amounted to 490 nM. This IC50 is about 3.5-fold higher than that of the molecule before. `Cc1nc2c(OC3CCOc4cccc(F)c43)cc(C(=O)N(C)C)cc2n1C` (racemic) [Example 9, 4-[(5-Fluoro-3,4-dihydro-2H-chromen-4-yl)oxy]-N,N,1,2-tetramethyl-1H-benzimidazole-6-carboxamide] showed an IC50 in experiment [1] of 960 nM.

With `Cc1nc2c(OC3CCOc4cc(F)ccc43)cc(C(=O)N(C)C)cc2n1C` (single isomer, unassigned; (+)) [Example 4, (+)-4-[(7-Fluoro-3,4-dihydro-2H-chromen-4-yl)oxy]-N,N,1,2-tetramethyl-1H-benzimidazole-6-carboxamide], the half-inhibitory concentration (IC50) in experiment [1] was 440 nM. The molecule `Cc1nc2c(OC3COCc4ccccc43)cc(C(=O)N(C)C)cc2n1C` (stereo not drawn) [Example 10, 4-(3,4-Dihydro-1H-isochromen-4-yloxy)-N,N,1,2-tetramethvl-1H-benzimidazole-6-carboxamide] showed an IC50 in experiment [1] of 320 nM. Molecule `CNC(=O)c1cc(OC2CCOc3cc(F)cc(F)c32)c2nc(C)n(C)c2c1` (single isomer, unassigned; (-)) [Example 20, (−)-4-[(5,7-Difluoro-3,4-dihydro-2H-chromen-4-yl)oxy]-N,1,2-trimethyl-1H-benzimidazole-6-carboxamide] gave an IC50 in experiment [1] of 610 nM. Same read-out and setting: for `Cc1nc2c(OC3CCOc4cc(F)cc(F)c43)cc(C(=O)N3CCC3)cc2n1C` (single isomer, unassigned; (+)) [Example 24, (+)-6-(Azetidin-1-ylcarbonyl)-4-[(5,7-difluoro-3,4-dihydro-2H-chromen-4yl)oxy]-1,2-dimethyl-1H-benzimidazole] the value was 620 nM. For the molecule `Cc1nc2c(OC3CCOc4cc(F)cc(F)c43)cc(C(=O)N(C)C)cc2n1C` (single isomer, unassigned; (-)) [Example 6, (−)-4-[(5,7-Difluoro-3,4-dihydro-2H-chromen-4-yl)oxy]-N,N,1,2-tetramethyl-1H-benzimidazole-6-carboxamide], the half-inhibitory concentration (IC50) in experiment [1] was found to be 210 nM. The “inhibitory activity (maximum inhibition of acid secretion relative to control)” value in the experiment with gastric acid secretion is on record as “good inhibitory activity”.

The record behind these values is US7718809B2, “Chromane substituted benzimidazole derivatives as acid pump antagonists” (RaQualia Pharma Inc., priority 2005, dated 2010).
